Results on 8 compounds are retold here after ChEMBL document CHEMBL4184257, “Design, synthesis and antibacterial evaluation of honokiol derivatives” (2018).

The test system of experiment [1] is Staphylococcus aureus. Nature of the experiment: Antibacterial activity against Staphylococcus aureus ATCC 25923 incubated at 37 degC for 20 hrs by standard broth microdilution method. The class given is functional. To be noted: ATCC 25923, 20 h. (In general: Broth dilution looks for growth in wells or tubes with falling amounts of substance.)
A further experiment has as its system Escherichia coli. Nature of the experiment: Antibacterial activity against Escherichia coli ATCC 25922 incubated at 37 degC for 20 hrs by standard broth microdilution method. To be noted: ATCC 25922, 20 h. The experiment is classed as functional.
The subject of experiment [2] is Staphylococcus aureus. Put plainly: Bacteriostatic activity against Staphylococcus aureus ATCC 25923 at 1 times MIC incubated for 24 hrs by time kill curve assay. The experiment is classed as functional, organism-based.
Experiment [3] has as its system Staphylococcus aureus. Nature of the experiment: Bactericidal activity against Staphylococcus aureus ATCC 25923 at 4 times MIC incubated for 24 hrs by time kill curve assay. The class given is functional, organism-based.
For experiment [4], the system named is Staphylococcus aureus. Nature of the experiment: Induction of cell wall destruction in Staphylococcus aureus ATCC 25923 at 1 times MIC incubated for 0.5 hrs Gram staining based assay. The experiment is classed as functional, organism-based.
Experiment [5] deals with Staphylococcus aureus. Put plainly: Induction of cell wall destruction in Staphylococcus aureus ATCC 25923 at 4 times MIC incubated for 1 hr Gram staining based assay. The experiment is classed as functional, organism-based.
In experiment [6] the test system is Staphylococcus aureus. Put plainly: Antibacterial activity against Staphylococcus aureus ATCC 29213 incubated at 37 degC for 20 hrs by agar dilution method. The experiment is classed as functional. The following applies: ATCC 29213, 20 h. In general terms: In agar dilution, organisms are placed on agar that contains the substance at set levels.
The subject of experiment [7] is Staphylococcus aureus. Put plainly: Antibacterial activity against Staphylococcus aureus ATCC 6538 incubated at 37 degC for 20 hrs by agar dilution method. To be noted: ATCC 6538, 20 h. The experiment is classed as functional.
Experiment [8] has as its system Staphylococcus aureus. Put plainly: Antibacterial activity against Staphylococcus aureus CMCC 26003 incubated at 37 degC for 20 hrs by agar dilution method. The experiment is classed as functional. To be noted: CMCC 26003, 20 h.
In experiment [9] the test system is Staphylococcus aureus. Put plainly: Antibacterial activity against Staphylococcus aureus ATCC 33591 incubated at 37 degC for 20 hrs by agar dilution method. The following applies: ATCC 33591, 20 h. The class given is functional.
Experiment [10] concerns Staphylococcus aureus. Nature of the experiment: Antibacterial activity against Staphylococcus aureus ATCC 43300 incubated at 37 degC for 20 hrs by agar dilution method. The class given is functional. The following applies: ATCC 43300, 20 h.
The next experiment has as its system Streptococcus pyogenes. Put plainly: Antibacterial activity against Streptococcus pyogenes ATCC 19615 incubated at 37 degC for 20 hrs by agar dilution method. The class given is functional. The following applies: ATCC 19615, 20 h.
Experiment [11] concerns Staphylococcus epidermidis. Put plainly: Antibacterial activity against Staphylococcus albus AS1.3374 incubated at 37 degC for 20 hrs by agar dilution method. The class given is functional. To be noted: AS1.3374, 20 h.
Experiment [12] relates to Staphylococcus epidermidis. Nature of the experiment: Antibacterial activity against Staphylococcus epidermidis ATCC 12228 incubated at 37 degC for 20 hrs by agar dilution method. The following applies: ATCC 12228, 20 h. The class given is functional.
In experiment [13] the test system is Enterococcus faecalis. Nature of the experiment: Antibacterial activity against Enterococcus faecalis ATCC 33186 incubated at 37 degC for 20 hrs by agar dilution method. The class given is functional. The following applies: ATCC 33186, 20 h.
The subject of experiment [14] is Enterococcus faecalis. Put plainly: Antibacterial activity against Enterococcus faecalis ATCC 35667 incubated at 37 degC for 20 hrs by agar dilution method. The class given is functional. To be noted: ATCC 35667, 20 h.
The subject of experiment [15] is Pseudomonas aeruginosa. Put plainly: Antibacterial activity against Pseudomonas aeruginosa ATCC 27853 incubated at 37 degC for 20 hrs by agar dilution method. The experiment is classed as functional. The following applies: ATCC 27853, 20 h.
Experiment [16] relates to Pseudomonas aeruginosa. Nature of the experiment: Antibacterial activity against Pseudomonas aeruginosa ATCC 9027 incubated at 37 degC for 20 hrs by agar dilution method. The experiment is classed as functional. To be noted: ATCC 9027, 20 h.
Experiment [17] concerns Pseudomonas aeruginosa. Nature of the experiment: Antibacterial activity against Pseudomonas aeruginosa CMCC 10104 incubated at 37 degC for 20 hrs by agar dilution method. The class given is functional. To be noted: CMCC 10104, 20 h.
Experiment [18] relates to Klebsiella pneumoniae. Nature of the experiment: Antibacterial activity against Klebsiella pneumoniae ATCC 4352 incubated at 37 degC for 20 hrs by agar dilution method. The experiment is classed as functional. The following applies: ATCC 4352, 20 h.
Experiment [19] concerns Klebsiella pneumoniae. Put plainly: Antibacterial activity against Klebsiella pneumoniae ATCC 700603 incubated at 37 degC for 20 hrs by agar dilution method. The class given is functional. The following applies: ATCC 700603, 20 h.
Experiment [20] concerns Klebsiella pneumoniae. Put plainly: Antibacterial activity against Klebsiella pneumoniae CMCC 46117 incubated at 37 degC for 20 hrs by agar dilution method. The following applies: CMCC 46117, 20 h. The experiment is classed as functional.
Experiment [21] relates to Staphylococcus aureus. Put plainly: Antibacterial activity against Staphylococcus aureus. The experiment is classed as functional.
For a further experiment, the system named is Streptococcus mutans. Put plainly: Antibacterial activity against Streptococcus mutans. The class given is functional.
The test system of another experiment is Candida albicans. Put plainly: Antimicrobial activity against Candida albicans. The class given is functional.

Structures are written as SMILES. In brackets after ≈: the same amount, converted by molar mass. Activity calls are given as the source filed them. The rule behind the calls is not given here.

By MIC90 is commonly meant an inhibitory concentration at the 90% level, which refers to growth in some studies and to a panel of isolates in others. Usually MIC stands for the lowest concentration found to suppress growth. A lower MIC goes with inhibition by little substance.

For the compound `C=CCc1cc(CN2CCCC(NC(=O)OC(C)(C)C)C2)c(O)c(-c2ccc(O)c(CC=C)c2)c1` (stereo not drawn), the MIC90 in the experiment on Staphylococcus aureus [1] and in the experiment with Escherichia coli was above 256 µg/mL throughout.

For the compound `C=CCc1cc(CN2CCN(C(=O)OC(C)(C)C)CC2)c(O)c(-c2ccc(O)c(CC=C)c2)c1`, the MIC90 with Staphylococcus aureus [1] and with Escherichia coli was above 256 µg/mL throughout.

As to `CN[C@H](CC(C)C)C(=O)N[C@H]1C(=O)N[C@@H](CC(N)=O)C(=O)N[C@H]2C(=O)N[C@H]3C(=O)N[C@H](C(=O)N[C@H](C(=O)O)c4cc(O)cc(O)c4-c4cc3ccc4O)[C@H](O)c3ccc(c(Cl)c3)Oc3cc2cc(c3O[C@@H]2O[C@H](CO)[C@@H](O)[C@H](O)[C@H]2O[C@H]2C[C@](C)(N)[C@H](O)[C@H](C)O2)Oc2ccc(cc2Cl)[C@H]1O` [VANCOMYCIN], the MIC90 against Staphylococcus aureus [1] was 1 µg/mL (≈ 0.69 µM); in the experiment on Escherichia coli, above 256 µg/mL. The result in the experiment on Staphylococcus aureus [2], in the experiment with Staphylococcus aureus [3], in the experiment on Staphylococcus aureus [4] and in the experiment with Staphylococcus aureus [5] was Active.

As for `C=CCc1cc(CN2CCC(N3CCCC(N)C3)CC2)c(O)c(-c2ccc(O)c(CC=C)c2)c1` (stereo not drawn), the MIC was determined as 16 µg/mL (≈ 34.7 µM) with Staphylococcus aureus [1]; 128 µg/mL (≈ 277 µM) with Escherichia coli; 16 µg/mL (≈ 34.7 µM) in the experiment with Staphylococcus aureus [6]; 16 µg/mL (≈ 34.7 µM) in the experiment on Staphylococcus aureus [7]; 16 µg/mL (≈ 34.7 µM) against Staphylococcus aureus [8]; 16 µg/mL (≈ 34.7 µM) against Staphylococcus aureus [9]. The MIC turned out to be 16 µg/mL (≈ 34.7 µM) in the experiment on Staphylococcus aureus [10]; 32 µg/mL (≈ 69.3 µM) against Streptococcus pyogenes; 16 µg/mL (≈ 34.7 µM) in experiment [11]; 16 µg/mL (≈ 34.7 µM) in experiment [12]; 16 µg/mL (≈ 34.7 µM) against Enterococcus faecalis [13]; 16 µg/mL (≈ 34.7 µM) with Enterococcus faecalis [14]. Moreover, the MIC was above 256 µg/mL against Pseudomonas aeruginosa [15]; above 256 µg/mL in the experiment on Pseudomonas aeruginosa [16]; 64 µg/mL (≈ 139 µM) in the experiment on Pseudomonas aeruginosa [17]; 16 µg/mL (≈ 34.7 µM) in the experiment with Klebsiella pneumoniae [18]; above 256 µg/mL against Klebsiella pneumoniae [19]; 32 µg/mL (≈ 69.3 µM) in the experiment on Klebsiella pneumoniae [20]. The MIC90 was 16 µg/mL (≈ 34.7 µM) in the experiment with Staphylococcus aureus [1] and 128 µg/mL (≈ 277 µM) in the experiment with Escherichia coli.

Take `C=CCc1cc(CO)c(O)c(-c2ccc(O)c(CC=C)c2)c1`: the MIC90 against Staphylococcus aureus [1] was 32 µg/mL (≈ 108 µM); in the experiment with Escherichia coli it was above 256 µg/mL.

On to `C=CCc1cc(CN2CCN(C(C)=O)CC2)c(O)c(-c2ccc(O)c(CC=C)c2)c1`, for which the MIC90 in the experiment on Staphylococcus aureus [1] and against Escherichia coli was above 256 µg/mL each time.

Turning to `C=CCc1cc(CN2CCC(NC(=O)OC(C)(C)C)CC2)c(O)c(-c2ccc(O)c(CC=C)c2)c1`, the MIC90 against Staphylococcus aureus [1] and with Escherichia coli was above 256 µg/mL throughout.

Turning to `C=CCc1ccc(O)c(-c2ccc(O)c(CC=C)c2)c1` [HONOKIOL], the MIC in the experiment on Staphylococcus aureus [21] was 50 µg/mL (≈ 188 µM); against Streptococcus mutans it was 10 µg/mL (≈ 37.5 µM); in the experiment on Candida albicans, 32 µg/mL (≈ 120 µM); in the experiment on Escherichia coli, above 256 µg/mL; against Staphylococcus aureus [6], 16 µg/mL (≈ 60.1 µM); against Staphylococcus aureus [7], 16 µg/mL (≈ 60.1 µM). For the same compound, the MIC came out at 16 µg/mL (≈ 60.1 µM) with Staphylococcus aureus [8]; 16 µg/mL (≈ 60.1 µM) against Staphylococcus aureus [9]; 16 µg/mL (≈ 60.1 µM) in the experiment with Staphylococcus aureus [10]; 8 µg/mL (≈ 30 µM) in the experiment with Streptococcus pyogenes; 16 µg/mL (≈ 60.1 µM) in experiment [11]; 16 µg/mL (≈ 60.1 µM) in experiment [12]. The minimal inhibitory concentration (MIC) with Enterococcus faecalis [13] was 32 µg/mL (≈ 120 µM); in the experiment with Enterococcus faecalis [14], 32 µg/mL (≈ 120 µM); in the experiment with Pseudomonas aeruginosa [15] it was above 256 µg/mL; against Pseudomonas aeruginosa [16] it was above 256 µg/mL; against Pseudomonas aeruginosa [17], above 256 µg/mL; against Klebsiella pneumoniae [18] it was 32 µg/mL (≈ 120 µM). Also, the minimum inhibitory concentration (MIC) was above 256 µg/mL with Klebsiella pneumoniae [19] and 32 µg/mL (≈ 120 µM) against Klebsiella pneumoniae [20]. The MIC90 was 16 µg/mL (≈ 60.1 µM) in the experiment on Staphylococcus aureus [1] and above 256 µg/mL in the experiment with Escherichia coli.
